Values after ≈ are worked out from the molar mass of the structure shown.
Key:
Escherichia coli [1] = test: Antibacterial activity against Escherichia coli JM109 after 24 hrs by micro broth dilution method; type: functional; conditions: JM109, 24 h
Pseudomonas aeruginosa = test: Antibacterial activity against Pseudomonas aeruginosa after 24 hrs by micro broth dilution method; type: functional
Cyberlindnera jadinii = test: Antifungal activity against Candida utilis after 24 hrs by two fold serial dilution based spectrophotometric analysis; type: functional; conditions: Williopsis jadinii
Bacillus subtilis = test: Antibacterial activity against Bacillus subtilis after 24 hrs by micro broth dilution method; type: functional
Aspergillus flavus = test: Antifungal activity against Aspergillus flavus after 24 hrs by two fold serial dilution based spectrophotometric analysis; type: functional
Micrococcus luteus = test: Antibacterial activity against Micrococcus luteus ATCC 4698 after 24 hrs by micro broth dilution method; type: functional; conditions: NCTC 2665, 24 h
Salmonella typhi = test: Antibacterial activity against Bacillus typhi after 24 hrs by micro broth dilution method; type: functional, Salmonella enterica subsp. enterica serovar Typhi; conditions: Salmonella enterica
Saccharomyces cerevisiae = test: Antifungal activity against Beer yeast after 24 hrs by two fold serial dilution based spectrophotometric analysis; type: functional
Bacillus = test: Antibacterial activity against Bacillus proteus ATCC 13315 after 24 hrs by micro broth dilution method; type: functional; conditions: ATCC 13315, 24 h
Escherichia coli [2] = test: Antibacterial activity against Escherichia coli DH52 after 24 hrs by micro broth dilution method; type: functional; conditions: DH52, 24 h
Staphylococcus aureus [3] = test: Antibacterial activity against methicillin-resistant Staphylococcus aureus N315 after 24 hrs by micro broth dilution method; type: functional; conditions: N315, 24 h
Candida albicans = test: Antifungal activity against Candida albicans after 24 hrs by two fold serial dilution based spectrophotometric analysis; type: functional
Pichia norvegensis = test: Antifungal activity against Candida mycoderma after 24 hrs by two fold serial dilution based spectrophotometric analysis; type: functional
Shigella dysenteriae = test: Antibacterial activity against Shigella dysenteriae after 24 hrs by micro broth dilution method; type: functional
Staphylococcus aureus [4] = test: Antibacterial activity against Staphylococcus aureus ATCC 25923 after 24 hrs by micro broth dilution method; type: functional; conditions: ATCC 25923, 24 h

| Compound | MIC (Escherichia coli [1]) [µg/mL] | MIC (Pseudomonas aeruginosa) [µg/mL] | MIC (Cyberlindnera jadinii) [µg/mL] | MIC (Bacillus subtilis) [µg/mL] | MIC (Aspergillus flavus) [µg/mL] | MIC (Micrococcus luteus) [µg/mL] | MIC (Salmonella typhi) [µg/mL] | MIC (Saccharomyces cerevisiae) [µg/mL] | MIC (Bacillus) [µg/mL] | MIC (Escherichia coli [2]) [µg/mL] | MIC (Staphylococcus aureus [3]) [µg/mL] | MIC (Candida albicans) [µg/mL] | MIC (Pichia norvegensis) [µg/mL] | MIC (Shigella dysenteriae) [µg/mL] | MIC (Staphylococcus aureus [4]) [µg/mL] |
| --- | --- | --- | --- | --- | --- | --- | --- | --- | --- | --- | --- | --- | --- | --- | --- |
| CCOc1ccc2c(c1)sc1nc(-c3ccccc3)c(COCCCBr)n12 | > 512 | 16 (≈ 35.9 µM) | > 512 | > 512 | 512 (≈ 1150 µM) | > 512 | 8 (≈ 18 µM) | > 512 | > 512 | > 512 | > 512 | > 512 | > 512 | > 512 | > 512 |
| Cc1ncc([N+](=O)[O-])n1CCCCCCCCCCOCc1c(-c2ccccc2)nc2sc3ccccc3n12 | 8 (≈ 14.7 µM) | 16 (≈ 29.3 µM) | 128 (≈ 235 µM) | 16 (≈ 29.3 µM) | 16 (≈ 29.3 µM) | 256 (≈ 469 µM) | 64 (≈ 117 µM) | 256 (≈ 469 µM) | 16 (≈ 29.3 µM) | 16 (≈ 29.3 µM) | 16 (≈ 29.3 µM) | 8 (≈ 14.7 µM) | 64 (≈ 117 µM) | 32 (≈ 58.6 µM) | 16 (≈ 29.3 µM) |
| CCOc1ccc2c(c1)sc1nc(-c3ccccc3)c(COCCCCCn3c([N+](=O)[O-])cnc3C)n12 | > 512 | 512 (≈ 985 µM) | 256 (≈ 493 µM) | 512 (≈ 985 µM) | 128 (≈ 246 µM) | 256 (≈ 493 µM) |  | 128 (≈ 246 µM) | > 512 | 512 (≈ 985 µM) |  | 32 (≈ 61.6 µM) | 128 (≈ 246 µM) |  | 128 (≈ 246 µM) |
| CCOc1ccc2c(c1)sc1nc(-c3ccccc3)c(COCCCn3c([N+](=O)[O-])cnc3C)n12 | 32 (≈ 65.1 µM) | 32 (≈ 65.1 µM) | 256 (≈ 521 µM) | 16 (≈ 32.5 µM) | 64 (≈ 130 µM) | 128 (≈ 260 µM) | 8 (≈ 16.3 µM) | 8 (≈ 16.3 µM) | 32 (≈ 65.1 µM) | 16 (≈ 32.5 µM) | 16 (≈ 32.5 µM) | 32 (≈ 65.1 µM) | 64 (≈ 130 µM) | 8 (≈ 16.3 µM) | 32 (≈ 65.1 µM) |
| CCn1cc(C(=O)O)c(=O)c2cc(F)c(N3CCNCC3)cc21 [NORFLOXACIN] | 1 (≈ 3.13 µM) | 16 (≈ 50.1 µM) |  | 4 (≈ 12.5 µM) |  | 2 (≈ 6.26 µM) | 4 (≈ 12.5 µM) |  | 8 (≈ 25.1 µM) | 1 (≈ 3.13 µM) | 8 (≈ 25.1 µM) |  |  | 16 (≈ 50.1 µM) | 2 (≈ 6.26 µM) |
| OC(Cn1cncn1)(Cn1cncn1)c1ccc(F)cc1F [FLUCONAZOLE] |  |  | 8 (≈ 26.1 µM) |  | 256 (≈ 836 µM) |  |  | 16 (≈ 52.2 µM) |  |  |  | 1 (≈ 3.27 µM) | 4 (≈ 13.1 µM) |  |  |
| CCOc1ccc2c(c1)sc1nc(-c3ccccc3)c(COCCCCCCCCCCn3cnc([N+](=O)[O-])c3)n12 | 512 (≈ 889 µM) | 32 (≈ 55.6 µM) | 512 (≈ 889 µM) | 32 (≈ 55.6 µM) | 64 (≈ 111 µM) | 512 (≈ 889 µM) | 32 (≈ 55.6 µM) | 256 (≈ 445 µM) | 256 (≈ 445 µM) | 64 (≈ 111 µM) | 32 (≈ 55.6 µM) | 256 (≈ 445 µM) | 128 (≈ 222 µM) | 8 (≈ 13.9 µM) | 128 (≈ 222 µM) |
| O=[N+]([O-])c1cn(CCCCCOCc2c(-c3ccccc3)nc3sc4ccccc4n23)cn1 | 128 (≈ 277 µM) | 512 (≈ 1110 µM) | > 512 | 128 (≈ 277 µM) | 64 (≈ 139 µM) | 256 (≈ 555 µM) | 128 (≈ 277 µM) | 32 (≈ 69.3 µM) | 64 (≈ 139 µM) | 128 (≈ 277 µM) | 8 (≈ 17.3 µM) | 16 (≈ 34.7 µM) | 16 (≈ 34.7 µM) | 128 (≈ 277 µM) | 32 (≈ 69.3 µM) |
| BrCCCCCOCc1c(-c2ccccc2)nc2sc3ccccc3n12 | 16 (≈ 37.3 µM) | 16 (≈ 37.3 µM) | 64 (≈ 149 µM) | 4 (≈ 9.32 µM) | 16 (≈ 37.3 µM) | 256 (≈ 596 µM) | 128 (≈ 298 µM) | 16 (≈ 37.3 µM) | 16 (≈ 37.3 µM) | 16 (≈ 37.3 µM) | 16 (≈ 37.3 µM) | 4 (≈ 9.32 µM) | 64 (≈ 149 µM) | 16 (≈ 37.3 µM) | 32 (≈ 74.5 µM) |
| O=[N+]([O-])c1cn(CCCOCc2c(-c3ccccc3)nc3sc4ccccc4n23)cn1 | 8 (≈ 18.5 µM) | 2 (≈ 4.61 µM) | 128 (≈ 295 µM) | 2 (≈ 4.61 µM) | 16 (≈ 36.9 µM) | 256 (≈ 591 µM) | 32 (≈ 73.8 µM) | 64 (≈ 148 µM) | 4 (≈ 9.23 µM) | 4 (≈ 9.23 µM) | 8 (≈ 18.5 µM) | 2 (≈ 4.61 µM) | 32 (≈ 73.8 µM) | 8 (≈ 18.5 µM) | 4 (≈ 9.23 µM) |
| c1ccc(-c2nc3sc4ccccc4n3c2COCCCn2cncn2)cc1 | 16 (≈ 41.1 µM) | 4 (≈ 10.3 µM) | 64 (≈ 164 µM) | 8 (≈ 20.5 µM) | 16 (≈ 41.1 µM) | 64 (≈ 164 µM) | 32 (≈ 82.2 µM) | 64 (≈ 164 µM) | 16 (≈ 41.1 µM) | 16 (≈ 41.1 µM) | 16 (≈ 41.1 µM) | 4 (≈ 10.3 µM) | 32 (≈ 82.2 µM) | 16 (≈ 41.1 µM) | 4 (≈ 10.3 µM) |

Reference: ChEMBL document CHEMBL4118281, “Azoalkyl ether imidazo[2,1-b]benzothiazoles as potentially antimicrobial agents with novel structural skeleton” (2018)
